Measured values taken from patent US20100298141A1, “SUBSTITUTED PYRIDINE N-OXIDE HERBICIDES” (E. I. DU PONT DE NEMOURS AND COMPANY, priority 2007, published 2010).

Key:
barnyardgrass = assay: Test A pre-/postemergence greenhouse test; assay type: in vivo, Echinochloa crus-galli; conditions: for Plant response rating, Barnyardgrass: 0 to 100 scale where 0 is no effect and 100 is complete control; for Barnyardgrass plant response rating: 0 to 100 scale
Method in brief: (§1)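 Sowing in loam/sand; same-day pre (directed soil spray) and post (foliar, 1–2 leaf, 2–10 cm) treatment with surfactant-containing non-phytotoxic solvent formulation; ~10 days in greenhouse; eye-scored injury against untreated plants.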

velvetleaf = assay: Test A pre-/postemergence greenhouse test; assay type: in vivo, Abutilon theophrasti; conditions: for Plant response rating, Velvetleaf: 0 to 100 scale where 0 is no effect and 100 is complete control; for Velvetleaf plant response rating: 0 to 100 scale
Method in brief: as §1

green foxtail = assay: Test C pre-/postemergence test; assay type: in vivo, Setaria viridis
Method in brief: (§2)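 Test chemicals were formulated with surfactant in a non-phytotoxic solvent and sprayed both on freshly planted seeds (preemergence) and on 1- to 4-leaf plants of 2–18 cm (postemergence). Flooded-paddy pots received compound directly into 3 cm of standing water, maintained for the test.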

Italian ryegrass = assay: Test C pre-/postemergence test; assay type: in vivo, Lolium multiflorum
Method in brief: as §2

goosegrass = assay: Test F preemergence test; assay type: in vivo, Eleusine indica; conditions: scale 0 to 100
Method in brief: (§3)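 Greenhouse screen: test chemical in surfactant-containing non-phytotoxic solvent applied preemergence to sown seeds or postemergence to sugarcane plants; after 14 to 21 days each species scored visually versus controls.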

johnsongrass = assay: Test F preemergence test; assay type: in vivo, Sorghum halepense; conditions: scale 0 to 100
Method in brief: as §3

kochia = assay: Test F preemergence test; assay type: in vivo, Kochia scoparia; conditions: scale 0 to 100
Method in brief: as §3

purple nutsedge = assay: Test F preemergence test; assay type: in vivo, Cyperus rotundus; conditions: scale 0 to 100
Method in brief: as §3

dallisgrass = assay: Test F preemergence test; assay type: in vivo, Paspalum dilatatum; conditions: scale 0 to 100
Method in brief: as §3

broadleaf signalgrass = assay: Test F preemergence test; assay type: in vivo, Brachiaria platyphylla; conditions: scale 0 to 100
Method in brief: as §3

common groundsel = assay: Test F preemergence test; assay type: in vivo, Senecio vulgaris; conditions: scale 0 to 100
Method in brief: as §3

Virginia dayflower = assay: Test F preemergence test; assay type: in vivo, Commelina virginica; conditions: scale 0 to 100
Method in brief: as §3

itchgrass = assay: Test F preemergence test; assay type: in vivo, Rottboellia cochinchinensis; conditions: scale 0 to 100
Method in brief: as §3

[1] = Postemergence, 500 g ai/ha, 0 is no effect, 100 is complete control
[2] = Preemergence, 125 g ai/ha, 0 no effect, 100 complete control
[3] = 62 g ai/ha, Preemergence, scale 0 to 100
[4] = 125 g ai/ha, preemergence, scale 0 (no effect) to 100 (complete control)
[5] = Postemergence, 125 g ai/ha, scale 0 to 100, 0 no effect, 100 complete control
[6] = Postemergence, 250 g ai/ha, scale 0 to 100, 0 no effect, 100 complete control
[7] = Preemergence, 31 g ai/ha, scale 0 to 100 (0 no effect, 100 complete control)
[8] = preemergence, 250 g ai/ha, scale 0 (no effect) to 100 (complete control)

SMILES: Cn1nc(C(F)(F)C(F)(F)F)c(C[S+]([O-])c2cccc[n+]2[O-])c1OCC(F)(F)F (centres unmarked) [Compound 79]
- Plant response rating, Barnyardgrass (barnyardgrass; Postemergence, 125 g ai/ha): 80
- Barnyardgrass plant response rating (barnyardgrass; [1]): 90
- Barnyardgrass plant response rating (barnyardgrass; [2]): 100
- Plant response rating, Barnyardgrass (barnyardgrass; Preemergence, 500 g ai/ha): 100
- Plant response rating, Velvetleaf (velvetleaf; Postemergence, 125 g ai/ha): 60
- Velvetleaf plant response rating (velvetleaf; [1]): 80
- Velvetleaf plant response rating (velvetleaf; [2]): 80
- Plant response rating, Velvetleaf (velvetleaf; Preemergence, 500 g ai/ha): 100
- Foxtail, Green plant response rating (green foxtail; [3]): 85
- Foxtail, Green plant response rating (green foxtail; [4]): 100
- Plant response rating (0 to 100), Foxtail, Green (green foxtail; Postemergence, 31 g ai/ha): 0
- Plant response rating (0 to 100), Foxtail, Green (green foxtail; Postemergence, 62 g ai/ha): 60
- Plant response rating, Foxtail, Green (green foxtail; [5]): 70
- Plant response rating, Foxtail, Green (green foxtail; [6]): 85
- Plant response rating, Foxtail, Green (green foxtail; [7]): 65
- Foxtail, Green plant response rating (green foxtail; [8]): 100
- Ryegrass, Italian plant response rating (Italian ryegrass; [3]): 60
- Ryegrass, Italian plant response rating (Italian ryegrass; [4]): 100
- Plant response rating (0 to 100), Ryegrass, Italian (Italian ryegrass; Postemergence, 31 g ai/ha): 0
- Plant response rating (0 to 100), Ryegrass, Italian (Italian ryegrass; Postemergence, 62 g ai/ha): 40
- Plant response rating, Ryegrass, Italian (Italian ryegrass; [5]): 60
- Plant response rating, Ryegrass, Italian (Italian ryegrass; [6]): 100
- Plant response rating, Ryegrass, Italian (Italian ryegrass; [7]): 40
- Ryegrass, Italian plant response rating (Italian ryegrass; [8]): 100
- Plant response rating, Goosegrass (goosegrass; 16 g ai/ha, preemergence): 20
- Goosegrass plant response rating (goosegrass; 62 g ai/ha, Preemergence): 98
- Goosegrass plant response rating (goosegrass; 125 g ai/ha, preemergence): 100
- Plant response rating, Goosegrass (goosegrass; Preemergence, 31 g ai/ha): 75
- Plant response rating, Johnsongrass (johnsongrass; 16 g ai/ha, preemergence): 0
- Johnsongrass plant response rating (johnsongrass; 62 g ai/ha, Preemergence): 90
- Johnsongrass plant response rating (johnsongrass; 125 g ai/ha, preemergence): 100
- Plant response rating, Johnsongrass (johnsongrass; Preemergence, 31 g ai/ha): 50
- Plant response rating, Kochia (kochia; 16 g ai/ha, preemergence): 50
- Kochia plant response rating (kochia; 62 g ai/ha, Preemergence): 100
- Kochia plant response rating (kochia; 125 g ai/ha, preemergence): 100
- Plant response rating, Kochia (kochia; Preemergence, 31 g ai/ha): 100
- Plant response rating, Purple Nutsedge (purple nutsedge; 16 g ai/ha, preemergence): 0
- Purple Nutsedge plant response rating (purple nutsedge; 62 g ai/ha, Preemergence): 0
- Purple Nutsedge plant response rating (purple nutsedge; 125 g ai/ha, preemergence): 60
- Plant response rating, Purple Nutsedge (purple nutsedge; Preemergence, 31 g ai/ha): 0
- Plant response rating, Dallisgrass (dallisgrass; 16 g ai/ha, preemergence): 0
- Dallisgrass plant response rating (dallisgrass; 62 g ai/ha, Preemergence): 90
- Dallisgrass plant response rating (dallisgrass; 125 g ai/ha, preemergence): 100
- Plant response rating, Dallisgrass (dallisgrass; Preemergence, 31 g ai/ha): 40
- Plant response rating, Signalgrass (broadleaf signalgrass; 16 g ai/ha, preemergence): 0
- Signalgrass plant response rating (broadleaf signalgrass; 125 g ai/ha, preemergence): 100
- Plant response rating, Signalgrass (broadleaf signalgrass; Preemergence, 62 g ai/ha): 30
- Plant response rating, Signalgrass (broadleaf signalgrass; Preemergence, 31 g ai/ha): 0
- Plant response rating, Groundsel (common groundsel; 16 g ai/ha, preemergence): 95
- Groundsel plant response rating (common groundsel; 62 g ai/ha, Preemergence): 95
- Groundsel plant response rating (common groundsel; 125 g ai/ha, preemergence): 100
- Plant response rating, Groundsel (common groundsel; Preemergence, 31 g ai/ha): 95
- Dayflower plant response rating (Virginia dayflower; 62 g ai/ha, Preemergence): 50
- Dayflower plant response rating (Virginia dayflower; 125 g ai/ha, preemergence): 100
- Plant response rating, Dayflower (Virginia dayflower; Preemergence, 31 g ai/ha): 20
- Plant response rating, Itchgrass (itchgrass; 16 g ai/ha, preemergence): 0
- Itchgrass plant response rating (itchgrass; 62 g ai/ha, Preemergence): 75
- Itchgrass plant response rating (itchgrass; 125 g ai/ha, preemergence): 95
- Plant response rating, Itchgrass (itchgrass; Preemergence, 31 g ai/ha): 75
